We go through 15 molecules from BindingDB's records for doi:10.7270/Q2TB1590 (Nmmlsc, 2007).

The assay addresses T1, fMet-Leu-Phe receptor (Homo sapiens, UniProt P21462).
T1 sequence (P21462 whole entry): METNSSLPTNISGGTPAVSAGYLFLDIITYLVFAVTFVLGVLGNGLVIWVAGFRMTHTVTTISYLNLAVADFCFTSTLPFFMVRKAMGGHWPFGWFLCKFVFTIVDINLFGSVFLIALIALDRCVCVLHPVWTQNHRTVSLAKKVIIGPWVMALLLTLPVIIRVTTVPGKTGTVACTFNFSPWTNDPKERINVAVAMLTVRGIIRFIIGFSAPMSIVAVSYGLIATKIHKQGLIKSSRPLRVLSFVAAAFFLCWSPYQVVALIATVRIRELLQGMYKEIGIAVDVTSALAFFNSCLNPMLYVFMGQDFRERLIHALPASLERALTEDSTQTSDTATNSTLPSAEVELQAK
Nature of the assay: human FPR1 ligand displacement potency – cell-based, flow cytometry, Ki from IC50, dose response (AID 724). In general terms: Flow cytometry measures light scatter and fluorescence of single cells or particles in a stream.

pIC50: −log10 of the molar value.

The term pIC50 denotes the negative decadic logarithm of the IC50, by convention in mol/L. Low values mean a large IC50, high ones a small IC50.

`COCCCN1C(=O)C(=O)C(C(=O)c2ccccc2)C1c1ccc(O)c(OC)c1` (stereo not given) [(4E)-5-(3-methoxy-4-oxidanyl-phenyl)-1-(3-methoxypropyl)-4-[oxidanyl(phenyl)methylidene]pyrrolidine-2,3-dione] had a pIC50 of 4.30.

The molecule `COc1ccc(C2C(C(=O)c3ccc(C)cc3)C(=O)C(=O)N2Cc2cccnc2)c(OC)c1` (stereo not given) [(4E)-5-(2,4-dimethoxyphenyl)-4-[(4-methylphenyl)-oxidanyl-methylidene]-1-(pyridin-3-ylmethyl)pyrrolidine-2,3-dione] showed a pIC50 of 4.22.

`COc1ccc(C2C(C(=O)c3cccs3)C(=O)C(=O)N2CCCn2ccnc2)cc1` (stereo not given) [1-(3-imidazol-1-ylpropyl)-2-(4-methoxyphenyl)-4-oxidanyl-3-thiophen-2-ylcarbonyl-2H-pyrrol-5-one] gave a pIC50 of 5.15.

Regarding `COc1ccc(OC)c(C2C(C(=O)c3ccccc3)C(=O)C(=O)N2c2cccnc2)c1` (stereo not given) [(4E)-5-(2,5-dimethoxyphenyl)-4-[hydroxy(phenyl)methylene]-1-(3-pyridyl)pyrrolidine-2,3-quinone], the pIC50 was 5.04.

As for `CC(C)c1ccc(C2C(C(=O)c3ccccc3)C(=O)C(=O)N2Cc2cccnc2)cc1` (stereo not given) [(4E)-4-[hydroxy(phenyl)methylene]-5-p-cumenyl-1-(3-pyridylmethyl)pyrrolidine-2,3-quinone], the pIC50 is 4.29. This pIC50 lies 0.75 log units lower than the previous one.

In the case of `O=C1C(=O)N(CCc2ccccc2)C(c2ccc(Cl)cc2)C1C(=O)c1cccs1` (stereo not given) [2-(4-chlorophenyl)-4-hydroxy-1-(2-phenylethyl)-3-(thiophene-2-carbonyl)-2H-pyrrol-5-one], the pIC50 was 4.97.

`COCCCN1C(=O)C(=O)C(C(=O)c2ccccc2)C1c1ccc(C(C)C)cc1` (stereo not given) [(4E)-1-(3-methoxypropyl)-4-[oxidanyl(phenyl)methylidene]-5-(4-propan-2-ylphenyl)pyrrolidine-2,3-dione] had a pIC50 of 4.51. This pIC50 lies 0.46 log units lower than the previous one.

`CC(=O)C1C(=O)C(=O)N(CCc2c(C)[nH]c3ccccc23)C1c1cccc(F)c1` (stereo not given) gave a pIC50 of 4.76.

The molecule `COc1ccc(OC)c(C2C(C(=O)c3ccccc3)C(=O)C(=O)N2c2ccc(C)c(Cl)c2)c1` (stereo not given) [(4E)-1-(3-chloranyl-4-methyl-phenyl)-5-(2,5-dimethoxyphenyl)-4-[oxidanyl(phenyl)methylidene]pyrrolidine-2,3-dione] had a pIC50 of 4.59.

In turn, `COc1ccc(C2C(C(=O)c3ccco3)C(=O)C(=O)N2CCN2CCOCC2)c(OC)c1` (stereo not given) [5-(2,4-dimethoxyphenyl)-4-(furan-2-carbonyl)-3-hydroxy-1-(2-morpholinoethyl)-1H-pyrrol-2(5H)-one] gave a negative logarithm of the IC50 (pIC50) of 5.01.

`COc1ccc(C2C(C(=O)c3ccccc3)C(=O)C(=O)N2c2cccc(Cl)c2)c(OC)c1` (stereo not given) [(4E)-1-(3-chlorophenyl)-5-(2,4-dimethoxyphenyl)-4-[hydroxy(phenyl)methylene]pyrrolidine-2,3-quinone] gave a pIC50 of 4.32.

In turn, `COc1ccc(C2C(C(=O)c3cccs3)C(=O)C(=O)N2CCN2CCOCC2)c(OC)c1` (stereo not given) [2-(2,4-dimethoxyphenyl)-1-(2-morpholin-4-ylethyl)-4-oxidanyl-3-thiophen-2-ylcarbonyl-2H-pyrrol-5-one] showed a negative logarithm of the IC50 (pIC50) of 5.36.

Molecule `COc1ccc(C2C(C(=O)c3ccccc3)C(=O)C(=O)N2CCCn2ccnc2)c(OC)c1` (stereo not given) [(4E)-5-(2,4-dimethoxyphenyl)-1-(3-imidazol-1-ylpropyl)-4-[oxidanyl(phenyl)methylidene]pyrrolidine-2,3-dione] showed a pIC50 of 5.28. The pIC50 values of the last two molecules are within 0.2 log units of each other.

In the case of `CCCCCCN1C(=O)C(=O)C(C(=O)c2ccccc2)C1c1ccc(O)c(OC)c1` (stereo not given) [(4Z)-1-hexyl-5-(3-methoxy-4-oxidanyl-phenyl)-4-[oxidanyl(phenyl)methylidene]pyrrolidine-2,3-dione], the pIC50 is 5.14.

On to `COCCN1C(=O)C(=O)C(C(=O)c2ccccc2)C1c1cc(OC)ccc1OC` (stereo not given) [(4E)-5-(2,5-dimethoxyphenyl)-1-(2-methoxyethyl)-4-[oxidanyl(phenyl)methylidene]pyrrolidine-2,3-dione], for which the pIC50 is 5.55. Against the preceding molecule, the pIC50 is 0.41 log units higher.
